Where two headings read alike, the source gives them in different places.
How the values were obtained:
MDA-MB-468 [1] = experiment: Colony formation assay; assay type: cell-based, human; settings: 8 nM, MDA-MB-468 cells
Protocol: (§1) Colony formation assay. […] The medium of each group was renewed once a week. […] The morphology of colonies was captured under a microscope and colony area was quantified using ImageJ software (NIH, Bethesda, Md.). The drug treatment was performed in triplicate.

MDA-MB-231 cells [2] = experiment: Scratch assay (cell migration); assay type: cell-based, human; settings: 16 nM
Protocol: Cell migration was also analyzed by the scratch assay. […] The following day, a scratch was made in the cell monolayer by using a sterile 200-μl pipette tip. […] After 12 h, 24 h and 48 h, the wound width was determined and imaged with Evos Fl Imaging System (Life Technologies, Carlsbad, Calif.). The extent of wound closure was shown as the percentage of decrease of the original scratch width at each measured time point. Experiments were done in triplicate.

Brain penetration = assay type: in vivo
MDA-MB-231 = experiment: Colony formation assay; assay type: cell-based, human; settings: 8 nM
Protocol: as §1

[3] = tested on: MDA-MB-231 xenograft tumors; experiment: H&E and IHC analysis of orthotopic TNBC tumors; assay type: in vivo, NSG mice; settings: 12.5 mg/kg
[4] = tested on: TNBC spontaneous lung metastasis; experiment: Spontaneous lung metastasis in orthotopic TNBC model; assay type: in vivo, mice; settings: 12.5 mg/kg
[5] = tested on: paclitaxel resistant PC-3 cells; experiment: In vitro cytotoxicity after 96 hours; assay type: cell-based
MDA-MB-468 [6] = experiment: cells; settings: Homo sapiens
MDA-MB-231 xenografts = experiment: Orthotopic TNBC xenograft model, 18 days
MDA-MB-231 cells [7] = experiment: Experimental lung metastasis model (tail vein); settings: 10 mg/kg, 22 days of treatment
PC-3/TxR tumors = experiment: Paclitaxel resistant prostate cancer xenograft; settings: in vivo
[8] = after 48 hours, MDA-MB-231 as printed

COc1cc2c(c(OC)c1OC)-c1ccc(OC)c(=O)cc1[C@@H](NC(C)=O)CC2 [colchicine]
reductions in colony formation (MDA-MB-468 [1]): 51% | average migration rate, scratch assay (MDA-MB-231 cells [2]; after 24 hours): 67.3% | average migration rate, scratch assay (MDA-MB-231 cells [2]; [8]): 15.8%

COc1cc(C(=O)c2csc(Nc3ccc4[nH]ccc4c3)n2)cc(OC)c1OC [Compound 55, (2-(1H-indol-5-ylamino)thiazol-4-yl)(3,4,5-trimethoxyphenyl)methanone]
Kp at 4 h (Brain penetration; brain, 4 h after oral treatment, read-out: Brain/plasma concentration ratio): ~0.2 | Brain/plasma concentration ratios over time (Brain penetration; in vivo): remained relatively constant over time | brain penetration (Brain penetration; in vivo): high brain penetration

CC(=O)O[C@H]1C(=O)[C@@]2(C)[C@H]([C@H](OC(=O)c3ccccc3)[C@]3(O)C[C@H](OC(=O)[C@H](O)[C@@H](NC(=O)c4ccccc4)c4ccccc4)C(C)=C1C3(C)C)[C@]1(OC(C)=O)CO[C@@H]1C[C@@H]2O [paclitaxel]
relative percentage of colonies (MDA-MB-231): 27.5% | reductions in colony formation (MDA-MB-468 [1]): 7.4% | average migration rate, scratch assay (MDA-MB-231 cells [2]; after 24 hours): 13.3% | average migration rate, scratch assay (MDA-MB-231 cells [2]; [8]): 14.5% | necrotic area of tumors [3]: 41.5% | spontaneous lung metastasis, mice [4]: all eight mice had no metastasis | potency in paclitaxel resistant PC-3 cells [5]: lose potency | IC50 (MDA-MB-468 [6]; MDA-MB-468, read-out: IC50 (FIG. 37)): 4.61 nM | IC50 (MDA-MB-468 [6]; MDA-MB-468, read-out: IC50, cell viability): 4.61 nM | average final tumor weight (MDA-MB-231 xenografts; 12.5 mg/kg): 0.38 g | body weight during treatment (MDA-MB-231 xenografts; 18 days, paclitaxel 12.5 mg/kg): decreased mice body weight significantly | body weights and physical activities of mice (MDA-MB-231 cells [7]): slightly decreased | lung metastasis of TNBC (MDA-MB-231 cells [7]): significantly inhibited lung metastasis

CC(=O)O[C@@]12CO[C@@H]1C[C@H](O)[C@@]1(C)C(=O)[C@H](O)C3=C(C)[C@@H](OC(=O)[C@H](O)[C@@H](NC(=O)OC(C)(C)C)c4ccccc4)C[C@@](O)([C@@H](OC(=O)c4ccccc4)[C@H]21)C3(C)C [docetaxel]
efficacy in PC-3/TxR tumors (PC-3/TxR tumors): lack of efficacy | potency in paclitaxel resistant PC-3 cells [5]: lose potency

Reference: patent US20190389841A1, “COMPOUNDS FOR TREATMENT OF TRIPLE NEGATIVE BREAST CANCER AND OVARIAN CANCER” (UNIVERSITY OF TENNESSEE RESEARCH FOUNDATION, priority 2018, published 2019)
